Data published in patent US10420758B2, “Indolinyl-sulfonamide inhibitors of tankyrase and methods of use thereof” (The Board of Regents of the University of Texas System, priority 2015, dated 2019).

Experiments:
Assay type in all cases: biochemical
[1] = tested on: panel of recombinant PARP proteins; assay: Overall specificity in panel of recombinant PARP proteins; conditions: 10 μM, panel covers 70% of the protein family
Procedure: (§1) Performed by BPS Bioscience Inc., San Diego by following the BPS PARP or TNKS assay kit protocols. The enzymatic reactions were conducted in duplicate at room temperature for 1 hr in a 96 well plate coated with histone substrate. […] of reaction buffer (Tris.HCl, pH 8.0) contains NAD^+, biotinylated NAD^+, activated DNA, recombinant PARP enzyme and 10 μM of the test compound. […] After enzymatic reactions, 50 μL of Streptavidin-horseradish peroxidase was added to each well and the plate was incubated at room temperature for an additional 30 min. 100 μL of developer reagents were added to wells and luminescence was measured using a BioTek Synergy™ 2 microplate reader.
The higher level of conservation between the NI-binding pocket in PARPs as compared to the AD-binding pocket likely imposes greater challenges to achieving specificity with NI-binding pocket inhibitors (Wahlberg, et al., 2012). […] At the same time, the discovery of structurally distinct chemicals both capable of binding the AD-binding pocket in a similar fashion (IWR-1 and IWR-8) afforded an opportunity to evaluate the strength of this hypothesis.

PARP10 = target: T1, PARP10 (Homo sapiens, UniProt Q53GL7); assay: PARP profiling, parsylation of immobilized histone
T1 sequence (Q53GL7 1-1025): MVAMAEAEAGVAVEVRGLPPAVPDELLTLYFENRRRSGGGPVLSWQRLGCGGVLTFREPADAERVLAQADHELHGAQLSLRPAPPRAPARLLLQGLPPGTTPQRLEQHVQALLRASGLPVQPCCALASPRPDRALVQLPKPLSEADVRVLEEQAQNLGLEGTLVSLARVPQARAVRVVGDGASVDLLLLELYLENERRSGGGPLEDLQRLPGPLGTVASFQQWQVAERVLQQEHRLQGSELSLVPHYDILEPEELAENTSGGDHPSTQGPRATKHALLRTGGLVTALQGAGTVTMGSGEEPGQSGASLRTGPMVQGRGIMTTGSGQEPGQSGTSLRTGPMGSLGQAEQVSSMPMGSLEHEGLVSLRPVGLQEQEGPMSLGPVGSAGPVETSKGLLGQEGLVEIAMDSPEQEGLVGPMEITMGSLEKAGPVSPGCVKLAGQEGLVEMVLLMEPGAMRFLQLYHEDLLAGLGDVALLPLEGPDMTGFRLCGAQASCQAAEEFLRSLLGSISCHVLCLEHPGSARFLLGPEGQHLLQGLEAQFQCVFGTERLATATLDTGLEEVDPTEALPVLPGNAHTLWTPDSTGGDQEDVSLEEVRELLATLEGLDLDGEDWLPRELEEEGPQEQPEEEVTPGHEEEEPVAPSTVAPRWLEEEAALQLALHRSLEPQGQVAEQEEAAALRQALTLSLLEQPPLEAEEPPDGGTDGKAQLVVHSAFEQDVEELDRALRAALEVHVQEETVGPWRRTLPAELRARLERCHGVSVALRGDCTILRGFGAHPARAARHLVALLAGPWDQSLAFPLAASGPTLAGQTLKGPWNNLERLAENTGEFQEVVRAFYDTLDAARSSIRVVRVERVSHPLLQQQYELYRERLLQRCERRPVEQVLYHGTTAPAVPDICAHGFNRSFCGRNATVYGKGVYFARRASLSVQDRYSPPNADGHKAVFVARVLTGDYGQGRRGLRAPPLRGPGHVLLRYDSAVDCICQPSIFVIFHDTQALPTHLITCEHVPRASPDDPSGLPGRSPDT
Procedure: as §1

PARP8 = target: T2, PARP8 (Homo sapiens, UniProt Q8N3A8); assay: PARP profiling, parsylation of immobilized histone
T2 sequence (Q8N3A8 1-854): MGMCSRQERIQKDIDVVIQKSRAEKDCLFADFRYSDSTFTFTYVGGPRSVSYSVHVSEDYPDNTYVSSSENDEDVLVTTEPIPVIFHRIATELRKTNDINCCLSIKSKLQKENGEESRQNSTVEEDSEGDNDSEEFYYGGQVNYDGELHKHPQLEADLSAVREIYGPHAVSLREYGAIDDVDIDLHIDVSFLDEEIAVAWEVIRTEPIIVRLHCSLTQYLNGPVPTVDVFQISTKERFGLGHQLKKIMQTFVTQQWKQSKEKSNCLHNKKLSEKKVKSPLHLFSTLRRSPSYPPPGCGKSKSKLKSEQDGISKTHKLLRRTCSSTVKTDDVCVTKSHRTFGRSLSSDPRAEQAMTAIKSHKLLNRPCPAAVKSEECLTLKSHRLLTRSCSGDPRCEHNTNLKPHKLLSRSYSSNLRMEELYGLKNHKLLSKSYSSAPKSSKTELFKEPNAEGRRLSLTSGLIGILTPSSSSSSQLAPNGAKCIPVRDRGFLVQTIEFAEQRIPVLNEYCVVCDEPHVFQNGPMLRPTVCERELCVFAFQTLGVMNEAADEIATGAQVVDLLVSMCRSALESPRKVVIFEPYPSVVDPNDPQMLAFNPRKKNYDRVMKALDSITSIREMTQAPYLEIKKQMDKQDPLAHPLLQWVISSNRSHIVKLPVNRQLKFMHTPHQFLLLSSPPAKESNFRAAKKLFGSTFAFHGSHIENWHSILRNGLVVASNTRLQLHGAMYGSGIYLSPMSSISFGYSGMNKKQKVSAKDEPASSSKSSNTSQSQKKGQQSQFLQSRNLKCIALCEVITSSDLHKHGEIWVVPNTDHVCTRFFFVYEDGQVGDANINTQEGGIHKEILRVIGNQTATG
Procedure: as §1

## CCN(C(=O)C1CCN(S(=O)(=O)c2cc3c(cc2Br)CCN3C(C)=O)CC1)c1cccc(C)c1 [IWR-8]
[1]
  specificity/selectivity across PARP panel: highly specific
PARP10; IWR compounds 10 μM
  inhibition at 10 µM: 9%
PARP8; IWR compounds 10 μM
  inhibition at 10 µM: 0%

## O=C(c1cc(Cc2n[nH]c(=O)c3ccccc23)ccc1F)N1CCN(C(=O)C2CC2)CC1 [Olaparib]
PARP10
  inhibition at 0.02 µM: 99%
PARP8
  inhibition at 0.02 µM: 96%

## O=C(Nc1cccc2cccnc12)c1ccc(N2C(=O)[C@@H]3[C@H](C2=O)[C@@H]2C=C[C@H]3C2)cc1 [IWR-1]
[1]
  specificity/selectivity across PARP panel: highly specific
PARP10; IWR compounds 10 μM
  % inhibition: 18%
PARP8; IWR compounds 10 μM
  % inhibition: 1%
